Legend:
Experiment in all cases: cell-based
Parameters in all cases: Eurofins Cerep functional GPCR screen, antagonist mode, inhibition of control agonist response
Conditions in all cases: read-out: % Inhibition of Control Agonist Response, Mean
[1] = molecular target: T1, α2B (Homo sapiens, UniProt P18089)
T1 construct: gene ADRA2B

[2] = molecular target: T2, FFA3 (Homo sapiens, UniProt O14843)
T2 construct: gene FFAR3

[3] = molecular target: XCR1 / GPR5 (Homo sapiens, UniProt P46094)
[4] = molecular target: T3, CysLT1 (LTD4) (Homo sapiens, UniProt Q9Y271)
T3 construct: gene CYSLTR1

[5] = molecular target: T4, AT1 (Homo sapiens, UniProt P30556)
T4 construct: gene AGTR1

[6] = molecular target: T5, D5 (Homo sapiens, UniProt P21918)
T5 construct: gene DRD5

[7] = molecular target: T6, ChemR23 (Homo sapiens, UniProt Q99788)
T6 construct: gene CMKLR1

[8] = molecular target: CX3CR1 (Homo sapiens, UniProt P49238)
[9] = molecular target: T7, CysLT2 (LTC4) (Homo sapiens, UniProt Q9NS75)
T7 construct: gene CYSLTR2

[10] = molecular target: T8, H3 (Homo sapiens, UniProt Q9Y5N1)
T8 construct: gene HRH3

[11] = molecular target: T9, A3 (Homo sapiens, UniProt P0DMS8)
T9 construct: gene ADORA3

[12] = molecular target: CXCR2 (Homo sapiens, UniProt P25025)
[13] = molecular target: T10, ETA (Homo sapiens, UniProt P25101)
T10 construct: gene EDNRA

[14] = molecular target: FPR1 (Homo sapiens, UniProt P21462)
[15] = molecular target: T11, alpha 1D (Homo sapiens, UniProt P25100)
T11 construct: gene ADRA1D

[16] = molecular target: T12, ETB (Homo sapiens, UniProt P24530)
T12 construct: gene EDNRB

[17] = molecular target: T13, A1 (Homo sapiens, UniProt P30542)
T13 construct: gene ADORA1

[18] = molecular target: T14, D3 (Homo sapiens, UniProt P35462)
T14 construct: gene DRD3

[19] = molecular target: OXGR1 GPR99 (Homo sapiens, UniProt Q96P68)
[20] = molecular target: T15, secretin (Homo sapiens, UniProt P47872)
T15 construct: gene SCTR

[21] = molecular target: T16, CGRP (Homo sapiens, UniProt Q16602)
T16 construct: gene CALCRL

[22] = molecular target: T17, H1 (Homo sapiens, UniProt P35367)
T17 construct: gene HRH1

[23] = molecular target: T18, H2 (Homo sapiens, UniProt P25021)
T18 construct: gene HRH2

[24] = molecular target: T19, GnRH (Homo sapiens, UniProt P30968)
T19 construct: gene GNRHR

[25] = molecular target: T20, BB3 (Homo sapiens, UniProt P32247)
T20 construct: gene BRS3

[26] = molecular target: CCR7 (Homo sapiens, UniProt P32248)

T8 sequence (Q9Y5N1 whole entry): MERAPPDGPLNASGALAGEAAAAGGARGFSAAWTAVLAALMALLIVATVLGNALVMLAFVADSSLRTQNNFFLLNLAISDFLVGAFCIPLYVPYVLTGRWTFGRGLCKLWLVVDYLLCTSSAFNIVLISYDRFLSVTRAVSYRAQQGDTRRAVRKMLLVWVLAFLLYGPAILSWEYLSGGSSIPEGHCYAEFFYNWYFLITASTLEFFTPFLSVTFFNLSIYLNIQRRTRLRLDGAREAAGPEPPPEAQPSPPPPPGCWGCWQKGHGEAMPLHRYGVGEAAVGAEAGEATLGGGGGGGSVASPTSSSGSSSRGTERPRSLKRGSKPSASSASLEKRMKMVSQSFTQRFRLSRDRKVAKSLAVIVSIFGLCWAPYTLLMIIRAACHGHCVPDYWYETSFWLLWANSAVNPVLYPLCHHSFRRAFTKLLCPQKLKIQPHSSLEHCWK
T13 sequence (P30542 whole entry): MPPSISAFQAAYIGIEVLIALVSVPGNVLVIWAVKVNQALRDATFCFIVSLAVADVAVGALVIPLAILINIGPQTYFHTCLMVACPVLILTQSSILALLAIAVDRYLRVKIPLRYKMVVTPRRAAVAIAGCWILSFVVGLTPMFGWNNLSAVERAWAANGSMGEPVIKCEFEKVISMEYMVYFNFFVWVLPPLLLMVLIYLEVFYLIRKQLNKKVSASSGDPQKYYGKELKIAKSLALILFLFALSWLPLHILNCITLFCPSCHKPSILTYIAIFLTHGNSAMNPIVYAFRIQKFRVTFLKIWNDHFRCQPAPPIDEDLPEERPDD
T9 sequence (P0DMS8 whole entry): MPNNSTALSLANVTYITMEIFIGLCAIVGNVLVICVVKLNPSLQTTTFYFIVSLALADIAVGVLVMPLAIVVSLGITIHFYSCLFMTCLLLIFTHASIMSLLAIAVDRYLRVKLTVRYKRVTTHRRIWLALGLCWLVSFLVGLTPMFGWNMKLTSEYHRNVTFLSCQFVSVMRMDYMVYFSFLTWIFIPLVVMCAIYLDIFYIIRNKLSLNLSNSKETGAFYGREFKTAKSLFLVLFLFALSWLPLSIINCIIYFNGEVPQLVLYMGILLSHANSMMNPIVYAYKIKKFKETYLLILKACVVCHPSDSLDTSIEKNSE
T12 sequence (P24530 whole entry): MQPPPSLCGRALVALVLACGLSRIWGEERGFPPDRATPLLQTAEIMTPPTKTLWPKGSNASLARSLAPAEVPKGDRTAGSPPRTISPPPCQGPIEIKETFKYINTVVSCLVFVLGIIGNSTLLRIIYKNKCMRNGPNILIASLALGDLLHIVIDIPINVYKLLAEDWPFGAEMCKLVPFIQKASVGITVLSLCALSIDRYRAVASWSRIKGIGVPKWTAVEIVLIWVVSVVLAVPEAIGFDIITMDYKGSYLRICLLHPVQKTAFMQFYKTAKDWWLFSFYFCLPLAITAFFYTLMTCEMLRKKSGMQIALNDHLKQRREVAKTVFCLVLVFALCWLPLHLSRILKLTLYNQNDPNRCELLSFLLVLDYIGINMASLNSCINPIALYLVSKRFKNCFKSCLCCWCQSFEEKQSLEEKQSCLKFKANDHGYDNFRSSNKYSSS
T3 sequence (Q9Y271 whole entry): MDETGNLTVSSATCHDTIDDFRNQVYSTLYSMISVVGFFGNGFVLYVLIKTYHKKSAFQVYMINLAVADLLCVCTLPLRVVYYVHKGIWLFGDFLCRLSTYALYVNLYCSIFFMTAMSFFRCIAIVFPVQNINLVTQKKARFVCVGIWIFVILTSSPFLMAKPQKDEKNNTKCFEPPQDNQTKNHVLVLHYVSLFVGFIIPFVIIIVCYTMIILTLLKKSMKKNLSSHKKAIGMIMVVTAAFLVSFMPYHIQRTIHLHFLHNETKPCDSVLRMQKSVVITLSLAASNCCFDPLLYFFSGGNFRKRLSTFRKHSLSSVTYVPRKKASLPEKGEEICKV
T18 sequence (P25021 whole entry): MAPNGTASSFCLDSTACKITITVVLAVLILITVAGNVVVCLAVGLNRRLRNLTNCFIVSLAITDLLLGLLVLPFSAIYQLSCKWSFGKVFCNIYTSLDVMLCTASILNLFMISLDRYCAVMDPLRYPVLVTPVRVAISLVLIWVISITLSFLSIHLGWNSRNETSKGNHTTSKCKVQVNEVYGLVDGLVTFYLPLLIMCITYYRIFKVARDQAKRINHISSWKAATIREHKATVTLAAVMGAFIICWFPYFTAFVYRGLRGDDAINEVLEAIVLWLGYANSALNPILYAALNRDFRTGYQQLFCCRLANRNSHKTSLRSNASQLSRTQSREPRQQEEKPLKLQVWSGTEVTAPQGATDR
CXCR2, sequence (P25025 whole entry): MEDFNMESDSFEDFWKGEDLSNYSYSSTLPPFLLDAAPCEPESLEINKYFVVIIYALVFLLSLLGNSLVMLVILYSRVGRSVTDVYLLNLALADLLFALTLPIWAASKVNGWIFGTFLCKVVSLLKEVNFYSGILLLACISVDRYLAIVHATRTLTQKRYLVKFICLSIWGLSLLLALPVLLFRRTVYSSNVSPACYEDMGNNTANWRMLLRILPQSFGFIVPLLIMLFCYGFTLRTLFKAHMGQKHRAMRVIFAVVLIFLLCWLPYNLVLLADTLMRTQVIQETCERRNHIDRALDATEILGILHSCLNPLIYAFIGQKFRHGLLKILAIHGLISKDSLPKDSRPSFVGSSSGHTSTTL
T1 sequence (P18089 whole entry): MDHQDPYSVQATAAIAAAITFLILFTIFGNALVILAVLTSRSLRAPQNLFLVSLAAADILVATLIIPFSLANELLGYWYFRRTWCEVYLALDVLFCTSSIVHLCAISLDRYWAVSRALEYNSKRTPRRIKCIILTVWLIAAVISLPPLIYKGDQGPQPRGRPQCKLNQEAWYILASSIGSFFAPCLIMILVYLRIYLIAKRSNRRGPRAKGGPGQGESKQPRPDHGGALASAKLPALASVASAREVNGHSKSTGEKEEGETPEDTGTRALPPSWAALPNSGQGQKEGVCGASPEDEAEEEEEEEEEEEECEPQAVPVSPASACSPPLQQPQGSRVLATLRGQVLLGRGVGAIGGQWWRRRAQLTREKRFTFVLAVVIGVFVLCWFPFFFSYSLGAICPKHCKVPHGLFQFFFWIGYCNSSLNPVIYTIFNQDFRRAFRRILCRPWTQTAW
XCR1 / GPR5, sequence (P46094 whole entry): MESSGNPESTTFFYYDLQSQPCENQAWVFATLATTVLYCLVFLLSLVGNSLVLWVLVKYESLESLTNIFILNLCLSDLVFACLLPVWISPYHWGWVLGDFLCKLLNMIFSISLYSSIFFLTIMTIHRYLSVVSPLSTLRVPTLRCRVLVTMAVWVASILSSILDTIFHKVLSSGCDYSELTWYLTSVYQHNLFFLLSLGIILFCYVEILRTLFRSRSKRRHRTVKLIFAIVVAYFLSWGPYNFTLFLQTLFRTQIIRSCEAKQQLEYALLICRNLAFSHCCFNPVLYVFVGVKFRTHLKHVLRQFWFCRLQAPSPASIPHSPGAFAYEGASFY
T10 sequence (P25101 whole entry): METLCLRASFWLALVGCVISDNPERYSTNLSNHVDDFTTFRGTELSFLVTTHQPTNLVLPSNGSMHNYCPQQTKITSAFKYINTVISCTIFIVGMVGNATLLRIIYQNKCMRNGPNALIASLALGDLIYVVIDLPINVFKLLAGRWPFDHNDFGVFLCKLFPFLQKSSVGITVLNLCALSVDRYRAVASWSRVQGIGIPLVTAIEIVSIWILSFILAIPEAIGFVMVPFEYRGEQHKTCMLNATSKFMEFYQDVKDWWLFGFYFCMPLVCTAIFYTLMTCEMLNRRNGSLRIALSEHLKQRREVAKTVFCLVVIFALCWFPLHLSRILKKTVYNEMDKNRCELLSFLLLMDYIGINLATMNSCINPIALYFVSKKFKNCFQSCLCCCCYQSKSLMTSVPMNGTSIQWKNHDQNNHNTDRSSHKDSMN
FPR1, sequence (P21462 whole entry): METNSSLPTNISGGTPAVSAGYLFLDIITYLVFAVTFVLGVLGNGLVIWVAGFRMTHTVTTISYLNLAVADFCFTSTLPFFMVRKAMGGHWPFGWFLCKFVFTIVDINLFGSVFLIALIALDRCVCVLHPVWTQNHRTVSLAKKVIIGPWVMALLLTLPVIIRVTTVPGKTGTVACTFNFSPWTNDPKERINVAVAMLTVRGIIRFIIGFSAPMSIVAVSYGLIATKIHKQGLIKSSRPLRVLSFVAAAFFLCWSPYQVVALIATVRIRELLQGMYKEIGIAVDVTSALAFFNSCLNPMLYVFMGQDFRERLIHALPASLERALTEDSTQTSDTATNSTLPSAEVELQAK
T7 sequence (Q9NS75 whole entry): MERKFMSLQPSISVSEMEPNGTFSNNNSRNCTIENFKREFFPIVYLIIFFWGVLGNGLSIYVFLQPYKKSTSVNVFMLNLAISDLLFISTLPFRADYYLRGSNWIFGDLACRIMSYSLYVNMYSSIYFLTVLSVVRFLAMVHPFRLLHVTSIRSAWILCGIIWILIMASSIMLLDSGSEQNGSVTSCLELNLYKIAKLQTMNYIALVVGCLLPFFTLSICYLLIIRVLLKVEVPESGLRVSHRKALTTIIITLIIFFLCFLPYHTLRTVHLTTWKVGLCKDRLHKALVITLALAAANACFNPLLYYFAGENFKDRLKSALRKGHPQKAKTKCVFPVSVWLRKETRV
T14 sequence (P35462 whole entry): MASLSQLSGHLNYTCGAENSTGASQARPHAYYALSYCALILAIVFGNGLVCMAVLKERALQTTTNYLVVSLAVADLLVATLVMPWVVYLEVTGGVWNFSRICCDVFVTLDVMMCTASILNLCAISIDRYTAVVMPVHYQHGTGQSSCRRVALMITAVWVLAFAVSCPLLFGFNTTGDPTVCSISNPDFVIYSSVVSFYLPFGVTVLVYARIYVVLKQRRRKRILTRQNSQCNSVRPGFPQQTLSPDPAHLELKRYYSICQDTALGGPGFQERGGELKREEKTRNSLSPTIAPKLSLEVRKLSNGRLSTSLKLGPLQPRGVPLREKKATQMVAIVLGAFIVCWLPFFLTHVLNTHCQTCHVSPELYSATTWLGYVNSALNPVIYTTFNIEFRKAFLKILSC

[O-][S@@+](Cc1cncs1)C(c1ccccc1)c1ccccc1 [S-CE-123, (S)-5-((Benzhydrylsulfinyl)Methyl)Thiazole]
inhibition at 2.8 µM [1]: -8.3% | inhibition at 2.8 µM [2]: -1.4% | inhibition at 2.8 µM [3]: -9.2% | inhibition at 2.8 µM [4]: -12.9% | inhibition at 2.8 µM [5]: 3% | inhibition at 2.8 µM [6]: -10.8% | inhibition at 2.8 µM [7]: -1.6% | inhibition at 2.8 µM [8]: -15.8% | inhibition at 2.8 µM [9]: 4.5% | inhibition at 2.8 µM [10]: -0.3% | inhibition at 2.8 µM [11]: -1.8% | inhibition at 2.8 µM [12]: 3.8% | inhibition at 2.8 µM [13]: -0.5% | inhibition at 2.8 µM [14]: 1.6% | inhibition at 2.8 µM [15]: -2.4% | inhibition at 2.8 µM [16]: 1.5% | inhibition at 2.8 µM [17]: 10.6% | inhibition at 2.8 µM [18]: -1.9% | inhibition at 2.8 µM [19]: -10.2% | inhibition at 2.8 µM [20]: 17.6% | inhibition at 2.8 µM [21]: -18.8% | inhibition at 2.8 µM [22]: -1.9% | inhibition at 2.8 µM [23]: -2.4% | inhibition at 2.8 µM [24]: 3.9% | inhibition at 2.8 µM [25]: 6.2% | inhibition at 2.8 µM [26]: 2.8%

From paper PMC10046369, “Low-Affinity/High-Selectivity Dopamine Transport Inhibition Sufficient to Rescue Cognitive Functions in the Aging Rat” (Biomolecules, 2023)
